Experimental data: ChEMBL document CHEMBL4819081 (Eur J Med Chem, 2021)
Activity calls are given as the source filed them. The rule behind the calls is not given here.

Legend:
[1] = tested on: MDA-MB-231; assay: Induction of apoptosis in human MDA-MB-231 cells assessed as early apoptotic cells at 10 uM after 24 hrs by Annexin-V/PI-staining based flow cytometry (reference value: 2.67%); assay type: functional
[2] = biological target: CDK6/cyclin D3 (Homo sapiens, UniProt Q00534); assay: Inhibition of CDK6/Cyclin D3 (unknown origin) by mobility shift assay; assay type: protein-complex assay
[3] = tested on: MDA-MB-231; assay: Induction of cell cycle arrest in human MDA-MB-231 cells assessed as accumulation at G1 phase at 0.75 uM after 12 hrs by propidium iodide staining-based flow cytometric analysis (reference value: 53.11%); assay type: functional
[4] = tested on: MDA-MB-231; assay: Induction of apoptosis in human MDA-MB-231 cells assessed as early apoptotic cells at 5 uM after 24 hrs by Annexin-V/PI-staining based flow cytometry (reference value: 2.67%); assay type: functional
[5] = tested on: MDA-MB-231; assay: Induction of apoptosis in human MDA-MB-231 cells assessed as early apoptotic cells at 2.5 uM after 24 hrs by Annexin-V/PI-staining based flow cytometry (reference value: 2.67%); assay type: functional
[6] = tested on: MDA-MB-231; assay: Induction of apoptosis in human MDA-MB-231 cells assessed as late apoptotic cells at 1.25 uM after 24 hrs by Annexin-V/PI-staining based flow cytometry (reference value: 3.02%); assay type: functional
[7] = biological target: Cyclin-dependent kinase 9 (Homo sapiens, UniProt P50750); assay: Inhibition of CDK9 (unknown origin)
[8] = tested on: MDA-MB-231; assay: Induction of apoptosis in human MDA-MB-231 cells assessed as late apoptotic cells at 0.625 uM after 24 hrs by Annexin-V/PI-staining based flow cytometry (reference value: 3.02%); assay type: functional
[9] = biological target: Cyclin-dependent kinase 1/cyclin B1 (Homo sapiens, UniProt P06493); assay: Inhibition of CDK1/cyclin B (unknown origin); assay type: protein-complex assay
[10] = Inhibition of clone formation in human MDA-MB-231 cells at 0.625 uM after 14 days by crystal violet staining based-colony formation assay; assay type: functional; settings: MDA-MB-231, 336 h, time 14 day
[11] = biological target: CDK2/Cyclin A2 (Homo sapiens, UniProt P24941); assay: Inhibition of CDK2/cyclin A2 (unknown origin); assay type: protein-complex assay
[12] = tested on: MDA-MB-231; assay: Potency index, ratio of IC50 for Palbociclib to IC50 for test compound for antiproliferative activity against human MDA-MB-231 cells assessed as reduction in cell viability after 72 hrs by MTT assay; assay type: functional
[13] = tested on: MDA-MB-231; assay: Antitumor activity against human MDA-MB-231 cells xenografted in BALB/c mouse assessed as tumor growth inhibition at 40 mg/kg, po measured every 3 days for 21 days; assay type: functional; settings: MDA-MB-231, po, 504 h, time 21 day, read-out: TGI
[14] = tested on: MDA-MB-231; assay: Inhibition of clone formation in human MDA-MB-231 cells at 0.16 uM after 14 days by crystal violet staining based-colony formation assay; assay type: functional, cell-based; settings: time 14.0 day
[15] = tested on: MDA-MB-231; assay: Induction of apoptosis in human MDA-MB-231 cells assessed as late apoptotic cells at 10 uM after 24 hrs by Annexin-V/PI-staining based flow cytometry (reference value: 3.02%); assay type: functional
[16] = tested on: MDA-MB-231; assay: Antiproliferative activity against human MDA-MB-231 cells assessed as reduction in cell viability after 72 hrs by MTT assay; assay type: functional, cell-based; settings: MDA-MB-231, 72 h
[17] = biological target: Cyclin-dependent kinase 4/cyclin D1 (Homo sapiens) (UniProt P11802+P24385); assay: Inhibition of CDK4/Cyclin D1 (unknown origin) at 200 nM using ATP by mobility shift assay; assay type: protein-complex assay
[18] = biological target: CDK6/cyclin D3 (Homo sapiens) (UniProt P30281+Q00534); assay: Inhibition of CDK6/Cyclin D3 (unknown origin) at 200 nM using ATP by mobility shift assay; assay type: protein-complex assay
[19] = tested on: MDA-MB-231; assay: Induction of cell cycle arrest in human MDA-MB-231 cells assessed as accumulation at S phase at 0.75 uM after 12 hrs by propidium iodide staining-based flow cytometric analysis (reference value: 23.71%); assay type: functional
[20] = biological target: CDK4/Cyclin D3 (Homo sapiens, UniProt P11802); assay: Inhibition of CDK4/Cyclin D3 (unknown origin) by mobility shift assay; assay type: protein-complex assay
[21] = tested on: MDA-MB-231; assay: Antitumor activity against human MDA-MB-231 cells xenografted in po dosed BALB/c mouse assessed as reduction in tumor volume measured every 3 days for 21 days; assay type: functional, organism-based; settings: dose 40-80 mg/kg, time 21.0 day
[22] = tested on: MDA-MB-453; assay: Antiproliferative activity against human MDA-MB-453 cells assessed as reduction in cell viability after 72 hrs by MTT assay; assay type: functional, cell-based; settings: MDA-MB-453, 72 h
[23] = biological target: Cyclin-dependent kinase 4/6 (Homo sapiens) (UniProt P11802+Q00534); assay: Inhibition of CDK4/6 in human MDA-MB-231 cells assessed as reduction in Rb phosphorylation at Ser780 after 24 hrs by western blot analysis; assay type: cell-based; settings: dose 0.5-4 µM
[24] = tested on: MDA-MB-231; assay: Induction of cell cycle arrest in human MDA-MB-231 cells assessed as accumulation at G2 phase at 1.5 uM after 12 hrs by propidium iodide staining-based flow cytometric analysis (reference value: 21.11%); assay type: functional
[25] = tested on: MCF7; assay: Antiproliferative activity against human MCF7 cells assessed as reduction in cell viability after 72 hrs by MTT assay; assay type: functional, cell-based; settings: MCF7, 72 h
[26] = tested on: NCI-H1299; assay: Antiproliferative activity against human NCI-H1299 cells assessed as reduction in cell viability after 72 hrs by MTT assay; assay type: functional, cell-based; settings: NCI-H1299, 72 h
[27] = tested on: MCF7; assay: Potency index, ratio of IC50 for Palbociclib to IC50 for test compound for antiproliferative activity against human MCF7 cells assessed as reduction in cell viability after 72 hrs by MTT assay; assay type: functional
[28] = tested on: MDA-MB-231; assay: Induction of cell cycle arrest in human MDA-MB-231 cells assessed as accumulation at G1 phase at 0.375 uM after 12 hrs by propidium iodide staining-based flow cytometric analysis (reference value: 53.11%); assay type: functional
[29] = tested on: MDA-MB-231; assay: Induction of apoptosis in human MDA-MB-231 cells assessed as late apoptotic cells at 5 uM after 24 hrs by Annexin-V/PI-staining based flow cytometry (reference value: 3.02%); assay type: functional
[30] = tested on: MDA-MB-231; assay: Induction of apoptosis in human MDA-MB-231 cells assessed as early apoptotic cells at 1.25 uM after 24 hrs by Annexin-V/PI-staining based flow cytometry (reference value: 2.67%); assay type: functional
[31] = tested on: MDA-MB-231; assay: Induction of cell cycle arrest in human MDA-MB-231 cells assessed as accumulation at S phase at 0.1875 uM after 12 hrs by propidium iodide staining-based flow cytometric analysis (reference value: 21.11%); assay type: functional
[32] = tested on: MDA-MB-231; assay: Induction of apoptosis in human MDA-MB-231 cells assessed as early apoptotic cells at 0.625 uM after 24 hrs by Annexin-V/PI-staining based flow cytometry (reference value: 2.67%); assay type: functional
[33] = tested on: MDA-MB-231; assay: Induction of cell cycle arrest in human MDA-MB-231 cells assessed as accumulation at G1 phase at 1.5 uM after 12 hrs by propidium iodide staining-based flow cytometric analysis (reference value: 53.11%); assay type: functional
[34] = tested on: MDA-MB-231; assay: Induction of apoptosis in human MDA-MB-231 cells assessed as late apoptotic cells at 2.5 uM after 24 hrs by Annexin-V/PI-staining based flow cytometry (reference value: 3.02%); assay type: functional

CDK4/Cyclin D3, sequence (P11802 whole entry): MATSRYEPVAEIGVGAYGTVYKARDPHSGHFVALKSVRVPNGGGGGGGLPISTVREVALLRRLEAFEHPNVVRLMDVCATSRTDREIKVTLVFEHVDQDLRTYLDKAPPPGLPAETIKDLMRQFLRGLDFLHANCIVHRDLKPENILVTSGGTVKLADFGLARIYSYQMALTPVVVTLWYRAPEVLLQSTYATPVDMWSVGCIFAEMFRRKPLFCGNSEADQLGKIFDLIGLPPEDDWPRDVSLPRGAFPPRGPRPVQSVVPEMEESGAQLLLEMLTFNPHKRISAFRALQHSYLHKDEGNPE
CDK4/Cyclin D3, sequence (P30281 whole entry, further chain): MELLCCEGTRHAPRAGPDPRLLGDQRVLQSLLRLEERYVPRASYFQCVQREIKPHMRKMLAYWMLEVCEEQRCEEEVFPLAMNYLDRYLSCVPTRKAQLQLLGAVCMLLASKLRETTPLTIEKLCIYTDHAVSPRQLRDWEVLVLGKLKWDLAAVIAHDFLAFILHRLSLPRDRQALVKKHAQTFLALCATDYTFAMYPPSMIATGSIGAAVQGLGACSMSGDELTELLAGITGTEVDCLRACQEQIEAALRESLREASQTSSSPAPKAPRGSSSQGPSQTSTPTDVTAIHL
Cyclin-dependent kinase 4/6 (Homo sapiens), sequence (P11802 whole entry, looked up): as the sequence (P11802 whole entry) above
Cyclin-dependent kinase 4/6 (Homo sapiens), sequence (Q00534 whole entry, looked up): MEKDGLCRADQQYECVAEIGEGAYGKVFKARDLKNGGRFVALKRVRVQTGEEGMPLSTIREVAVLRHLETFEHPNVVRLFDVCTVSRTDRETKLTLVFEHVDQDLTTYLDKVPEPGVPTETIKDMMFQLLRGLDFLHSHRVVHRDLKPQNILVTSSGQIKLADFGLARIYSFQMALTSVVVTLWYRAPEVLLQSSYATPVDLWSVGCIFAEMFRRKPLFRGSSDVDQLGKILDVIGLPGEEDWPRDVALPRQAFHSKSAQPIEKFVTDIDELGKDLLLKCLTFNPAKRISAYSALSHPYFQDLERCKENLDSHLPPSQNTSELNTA
Cyclin-dependent kinase 1/cyclin B1, sequence (P06493 whole entry): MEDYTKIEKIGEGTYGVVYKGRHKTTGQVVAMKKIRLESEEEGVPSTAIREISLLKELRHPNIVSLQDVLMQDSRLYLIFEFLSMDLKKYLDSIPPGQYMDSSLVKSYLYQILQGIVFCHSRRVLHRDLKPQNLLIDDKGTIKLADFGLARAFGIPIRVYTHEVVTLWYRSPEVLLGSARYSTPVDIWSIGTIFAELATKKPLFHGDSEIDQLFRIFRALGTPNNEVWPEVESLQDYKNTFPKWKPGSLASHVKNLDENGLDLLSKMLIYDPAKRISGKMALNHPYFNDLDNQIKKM
Cyclin-dependent kinase 1/cyclin B1, sequence (P14635 whole entry, further chain): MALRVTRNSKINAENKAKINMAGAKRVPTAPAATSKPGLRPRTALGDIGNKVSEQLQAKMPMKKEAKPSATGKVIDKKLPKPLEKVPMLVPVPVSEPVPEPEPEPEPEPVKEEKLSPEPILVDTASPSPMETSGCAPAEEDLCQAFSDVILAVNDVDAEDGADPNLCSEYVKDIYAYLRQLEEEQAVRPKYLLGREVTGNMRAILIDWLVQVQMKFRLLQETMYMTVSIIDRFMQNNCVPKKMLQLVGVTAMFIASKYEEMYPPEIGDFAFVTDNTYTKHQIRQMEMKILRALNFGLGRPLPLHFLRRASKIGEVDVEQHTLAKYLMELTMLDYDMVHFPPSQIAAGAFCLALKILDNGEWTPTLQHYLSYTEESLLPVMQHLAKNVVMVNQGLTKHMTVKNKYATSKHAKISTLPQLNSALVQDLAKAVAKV
CDK6/cyclin D3, sequence (P30281 whole entry): as the sequence (P30281 whole entry, further chain) above
CDK6/cyclin D3, sequence (Q00534 whole entry): as the sequence (Q00534 whole entry, looked up) above
Cyclin-dependent kinase 9, sequence (P50750 whole entry): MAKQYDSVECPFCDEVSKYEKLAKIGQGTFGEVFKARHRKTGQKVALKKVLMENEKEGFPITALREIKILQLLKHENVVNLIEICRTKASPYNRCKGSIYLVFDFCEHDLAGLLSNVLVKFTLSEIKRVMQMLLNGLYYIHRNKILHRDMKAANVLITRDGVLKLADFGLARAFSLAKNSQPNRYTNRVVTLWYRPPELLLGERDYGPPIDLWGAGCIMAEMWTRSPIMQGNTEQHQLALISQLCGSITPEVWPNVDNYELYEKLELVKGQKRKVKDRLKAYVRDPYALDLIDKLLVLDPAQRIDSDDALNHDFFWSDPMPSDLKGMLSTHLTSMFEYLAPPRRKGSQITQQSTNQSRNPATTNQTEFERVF

IC50 [2]: 0.014 µM
IC50 [7]: 1.83 µM
IC50 [9]: > 10 µM
IC50 [11]: 7.6 µM
IC50 [16]: 1.21 µM
inhibition [17]: 93.8%
inhibition [18]: 95.3%
IC50 [20]: 0.0061 µM
IC50 [22]: 1.75 µM
inhibition [23]: Dose-Dependent Effect
IC50 [25]: 0.38 µM
IC50 [26]: 2.49 µM
SMILES: CC(=O)c1c(C)c2cnc(Nc3ccc(N4CCN(C(=O)CCl)CC4)cn3)nc2n(C2CCCC2)c1=O
Activity [1]: 68.48%
Activity [3]: 71%
Activity [4]: 44.02%
Activity [5]: 17.09%
Activity [6]: 9.72%
Activity [8]: 3.82%
inhibition at 0.625 µM [10]: 100%
Ratio IC50 [12]: 4
inhibition in vivo at 40 mg/kg [13]: 93.5%
inhibition [14]: Active
Activity [15]: 14.54%
Activity [19]: 11.05%
inhibition [21]: Dose-Dependent Effect
Activity [24]: 19.72%
Ratio IC50 [27]: 40
Activity [28]: 68.34%
Activity [29]: 27.32%
Activity [30]: 7.72%
Activity [31]: 13.82%
Activity [32]: 4.24%
Activity [33]: 71.12%
Activity [34]: 31.65%
